In patent US6765011B2, “7-heterocyclyl quinoline and thieno[2,3-b]pyridine derivatives useful as antagonists of gonadotropin releasing hormone” (Ortho-McNeil Pharmaceutical, Inc., priority 2000, dated 2004):
pIC50: −log10 of the molar value. Where a name gives a salt, the structure may show the parent alone.

Tests used:
[1] = molecular target: T1, membrane-bound GnRH receptor (Rattus norvegicus, UniProt P30969); experiment: GnRH Receptor Binding Assay ([125I]-histrelin competition, rat pituitary homogenate); conditions: [125I]-histrelin displacement, female and male rat pituitary homogenate; values without parentheses = IC50; read-out: Binding, IC50 (B % @ 30 μM)
T1 construct: from tissue; host or cells: rat pituitary homogenate (female and male, equal mixture)
T1 sequence (P30969 1-327): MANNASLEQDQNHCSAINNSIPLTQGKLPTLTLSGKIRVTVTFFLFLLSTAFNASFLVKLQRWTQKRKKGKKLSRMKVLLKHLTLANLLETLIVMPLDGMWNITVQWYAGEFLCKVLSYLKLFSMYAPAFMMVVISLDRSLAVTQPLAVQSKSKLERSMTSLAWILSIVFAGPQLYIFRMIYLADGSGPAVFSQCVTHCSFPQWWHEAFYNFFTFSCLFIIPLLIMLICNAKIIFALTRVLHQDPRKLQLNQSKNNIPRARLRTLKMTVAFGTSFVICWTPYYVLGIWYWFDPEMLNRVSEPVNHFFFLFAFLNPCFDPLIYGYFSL
From the text: GnRH Receptor Binding Assay
A homogenate prepared from an equal mixture of female and male rat pituitaries was used as the source of the membrane-bound GnRH receptor. The receptor was allowed to interact in solution with [^125I]-histrelin alone or in combination with a competitive ligand (the compound being tested). The bound radiolabeled ligand was separated from the free (unbound) radiolabeled ligand by filtration through glass filter mats using a 96-well plate harvesting system (Tomtec Mach II 96). In the absence of a competitive ligand, a maximum amount of radiolabeled ligand is bound to the receptor and trapped by the glass filter mats. […] The amount of receptor-bound [^125I]-histrelin on the filter mat was determined using a Wallac Betaplate™ Liquid Scintillation Counter. Binding was determined as follows:
B0 maximum concentration of compound
Average NSB: (NSB1+NSB2)/2
Corrected B0: Average B0−Average NSB
% inhibition of Corrected B0 (or maximum response) was calculated as follows:
% Inhibition=100−[((Actual counts per minute−Average NSB)/Corrected B0)*100]

[2] = molecular target: T2, GnRHR (Hek 293 cells with the GnRHR gene) (Homo sapiens, UniProt P30968); experiment: LUCIFERASE Assay for GnRH (hCG promoter luciferase reporter); type: cell-based; conditions: antagonist format, against 0.6 nM Histrelin
T2 construct: expressed in transfected cells; host or cells: HEK 293 cells carrying the GnRHR gene, transfected with an hCG promoter-luciferase reporter
T2 sequence (P30968 1-328): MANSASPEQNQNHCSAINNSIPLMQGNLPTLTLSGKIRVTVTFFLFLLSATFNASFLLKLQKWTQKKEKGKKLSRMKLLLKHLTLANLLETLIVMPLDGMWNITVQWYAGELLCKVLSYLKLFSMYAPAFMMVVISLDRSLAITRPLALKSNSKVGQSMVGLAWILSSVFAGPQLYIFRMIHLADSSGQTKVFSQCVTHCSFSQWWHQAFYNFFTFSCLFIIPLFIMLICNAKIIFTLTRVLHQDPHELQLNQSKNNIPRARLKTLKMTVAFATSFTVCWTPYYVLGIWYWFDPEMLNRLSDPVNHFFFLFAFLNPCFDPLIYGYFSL
Description: LUCIFERASE Assay for GnRH
Hek 293 cells with the GnRHR gene were transfected with the hCG promoter and the luciferase reporter system. On day 1, the cells were plated at a density of 80,000 cells per well on a Poly-D-lysine pre-coated 96 well plate. The plates were incubated at 37° C. for 24 hours. On day 2, the spent media was decanted and replaced with fresh media. Test compounds, standard and controls were added to individual wells. All the dilutions were done in 7.5% DMSO/(αMEM media. The assay was run in both agonist and antagonist format. For the antagonist format, the assay measurements were run against a standard of 0.6 nM Histrelin. On day 3, the levels of luciferase production were measured in a chemiluminescence assay using Enhanced Luciferase Assay Kit. The results were expressed as % Inhibition using the following formula: […]
RLU Relative Light Units, a measure of chemiluminescence
Agonist [RLU value(test compound)−(Background/0.6 nM Histrelin)−Background]*100
Antagonist (1−[(RLU value−(Background/0.6 nM Histrelin)−Background)*100])
The calculated percentages were plotted on a graph using Graph Pad Prizm and the IC50/EC50 values determined.

[3] = test system: rat anterior pituitary cells; experiment: Primary Pituitary Cell Culture Assay (luteinizing hormone in media after 1 nM GnRH); type: cell-based; conditions: inhibition of luteinizing hormone release, male rat primary pituitary cells
Description: Primary Pituitary Cell Culture Assay
Male rats (between immature and adult) were sacrificed and the anterior pituitaries were collected from them. The pituitaries were dissociated and the cells were plated at a concentration of 0.33×10^6 cells/well on day 1. On day 3 the media on the cells was flushed and replaced with fresh media. The test compound was then added to the plated cells at a concentration ranging from 1 nM to 1000 nM. The plates were incubated at 37° C. at 5% CO2 for 2 days. On Day 5 the media was flushed again and replaced with fresh media. To the plates were then added test compound and 1 nM GnRH. The cells were incubated for 4 hours, the media was collected by centrifuging the plates at 1200 rpm Sorvall RT7 for 10 minutes, 900 μL of supernatant was pipetted from each well and dispensed to a 96 well plate. The deep well plates were covered and stored at […] for a day. The plates are then evaluated by ELISA ([…]) to determine the concentration of lutenizing hormone in the media. The assay was repeated at varying concentrations of the test compounds to determine IC50 values. The IC50 value is defined as the concentration of test compound at which 50% inhibition was achieved.

Question: `CCOC(=O)c1cn(Cc2c(F)cccc2F)c2cc(-c3ccsc3)c(CN(C)Cc3ccccc3)cc2c1=O` [Compound 1, 6-(N-Benzyl-N-methylaminomethyl)-7-(thien-3-yl)-1-(2,6-difluorobenzyl)-1,4-dihydro-4-oxoquinoline-3-carboxylic Acid Ethyl Ester] was tested. Which pIC50 [1] did it give?
Answer: The pIC50 was 4.49.

Question: And the pIC50 [2]?
Answer: The pIC50 was 5.00.

Question: With `CCOC(=O)c1cn(Cc2c(F)cccc2F)c2cc(-c3cc4ccccc4o3)c(CN(C)Cc3ccccc3)cc2c1=O` [Compound 2, 6-(N-Benzyl-N-methylaminomethyl)-7-(benzofuran-2-yl)-1-(2,6-difluorobenzyl)-1,4-dihydro-4-oxoquinoline-3-carboxylic Acid Ethylester] as the molecule, how does the pIC50 [3] read?
Answer: The pIC50 was 5.61.

Question: And the pIC50 [2]?
Answer: Its pIC50 is 5.49.

Question: How did the pIC50 [1] turn out when `CN(Cc1ccccc1)Cc1cc2c3n[nH]c(=O)c-3cn(Cc3c(F)cccc3F)c2cc1Br` [Compound 3, 2,5-Dihydro-7-bromo-8-[[methyl(phenylmethyl)amino]methyl]-5-[(2,6-difluorophenyl)methyl]-3H-pyrazolo[4,3-c]quinolin-3-one] was run?
Answer: Its pIC50 is 4.80.

Question: `CN(Cc1ccccc1)Cc1cc2c3n[nH]c(=O)c-3cn(Cc3c(F)cccc3F)c2cc1-c1cc2ccccc2o1` [Compound 4, 2,5-Dihydro-7-(benzofuran-2-yl)-8-[[methyl(phenylmethyl)amino]methyl]-5-[(2,6-difluorophenyl)methyl]-3H-pyrazolo[4,3-c]quinolin-3-one] was tested. Which pIC50 [1] did it give?
Answer: The pIC50 was 6.00.

Question: How did the pIC50 [1] turn out when `CN(Cc1ccccc1)Cc1cc2c3nnc(OCc4ccccc4)c-3cn(Cc3c(F)cccc3F)c2cc1-c1cc2ccccc2o1` [Compound 5, 7-(Benzofuran-2-yl)-3-[(phenylmethyl)oxy]-5-[(2,6-difluorophenyl)methyl]-8-[[methyl(phenylmethyl)amino]methyl]-5H-pyrazolo[4,3-c]quinoline] was run?
Answer: The pIC50 was 5.30.

Question: `CCOc1nnc2c3cc(CN(C)Cc4ccccc4)c(-c4cc5ccccc5o4)cc3n(Cc3c(F)cccc3F)cc1-2` [Compound 6, 7-(Benzofuran-2-yl)-3-ethoxy-5-[(2,6-difluorophenyl)methyl]-8-[[methyl(phenylmethyl)amino]methyl]-5H-pyrazolo[4,3-c]quinoline HCl] was tested. Which pIC50 [1] did it give?
Answer: The pIC50 was 5.30.

Question: `COc1ccc(-c2sc3c(c2CN(C)Cc2ccccc2)c(=O)c(C(=O)NN)cn3Cc2ccccc2OC)cc1` [Compound 7, 4,7-Dihydro-2-(4-methoxyphenyl)-7-[(2-methoxyphenyl)methyl]-3-[[methyl(phenylmethyl)amino]methyl]-4-oxo-thieno[2,3-b]pyridine-5-carboxylic Acid, Hydrazide bis-Hydrochloride] was tested. Which pIC50 [1] did it give?
Answer: Its pIC50 is 5.80.

Question: And the pIC50 [3]?
Answer: The pIC50 was 5.83.

Question: `COc1ccc(-c2sc3c(c4n[nH]c(=O)c-4cn3Cc3ccccc3OC)c2CN(C)Cc2ccccc2)cc1` [Compound 8, 2,5-Dihydro-7-(4-methoxyphenyl)-5-[(2-methoxyphenyl)methyl]-8-[[methyl(phenylmethyl)amino]methyl]-3H-pyrazolo[3,4-d]thieno[2,3-b]pyridin-3-one] was tested. Which pIC50 [1] did it give?
Answer: Its pIC50 is 4.52.
